In ChEMBL document CHEMBL4483862, “Open-source discovery of chemical leads for next-generation chemoprotective antimalarials” (2018) one finds IC50 and IC90 data, which are given here for 37 compounds.

This experiment relates to Plasmodium berghei. As to the kind of experiment: Luciferase/luciferin-expressing antifolate-resistant parasites were used to infect a culture of HepG2 cells that were pre-incubated with compounds. Infected hepatocytes emit light due to the luciferase reaction. Assay results are presented as the percent inhibition of light emission compared to control. […]. The experiment is classed as functional. As to conditions: sporozoite; for IC90: read-out: LUCIFERASE INFECTION ASSAY - IC90.

A word on the IC50: it is the concentration needed to halve the response being measured. A word on the IC90: it is the concentration needed for an effect of 90%. With `CCNc1nc(CN2CCCCC2)nc2scc(-c3ccccc3)c12`, the IC90 was 5.12 µM. The IC50 (PBLUC_HILL_SLOPE 4.71, PBLUC_R_SQUARED 0.781, read-out: LUCIFERASE INFECTION ASSAY - IC50) is 3.21 µM.

As for `Brc1ccc(OCc2ccccc2)c(CNCc2ccccn2)c1`, the IC90 was 6.94 µM. Moreover, for the setting “PBLUC_HILL_SLOPE 4.81, PBLUC_R_SQUARED 0.436, read-out: LUCIFERASE INFECTION ASSAY - IC50”, the IC50 turned out to be 4.39 µM.

Turning to `Cc1cccc(C)c1NC(=O)N1[C@@H]2CC[C@@H](C2)[C@H]1c1nc2cccc(OCc3ccc(F)cc3)c2[nH]1`, the IC90 is more than 10 µM. For the same compound, where the note is “PBLUC_HILL_SLOPE 4.64, PBLUC_R_SQUARED 0.011, read-out: LUCIFERASE INFECTION ASSAY - IC50”, the IC50 was more than 10 µM.

As to `Cc1[nH]c2c(F)cc(F)cc2c(=O)c1I`, the IC90 was 9.47 µM. In addition, the IC50 (PBLUC_HILL_SLOPE 4.58, PBLUC_R_SQUARED 0.0894, read-out: LUCIFERASE INFECTION ASSAY - IC50) is 5.86 µM.

For the compound `Cc1ccc(C(C)C)c(OCC(=O)N2CCC(c3nc4ccccc4[nH]3)CC2)c1`, the IC90 stood at 7.21 µM. Further, under “PBLUC_HILL_SLOPE 4.62, PBLUC_R_SQUARED 0.766, read-out: LUCIFERASE INFECTION ASSAY - IC50”, the IC50 came out at 4.48 µM.

For `CC(C)c1ccc2c(ccc[n+]2C)c1`, the IC90 was more than 10.5 µM. Further, the IC50 (PBLUC_HILL_SLOPE 4.53, PBLUC_R_SQUARED 0.451, read-out: LUCIFERASE INFECTION ASSAY - IC50) stood at 8.36 µM.

For the compound `CN1CCN(c2ccc(-c3cn4c(-c5cccc(O)c5)cnc4cn3)cn2)CC1`, the IC90 was more than 8.54 µM. Also, for the setting “PBLUC_HILL_SLOPE 4.85, PBLUC_R_SQUARED 0.265, read-out: LUCIFERASE INFECTION ASSAY - IC50”, the IC50 was 7.18 µM.

Take `COc1ccccc1C(=O)NCC#Cc1cccc(C(F)(F)F)c1`: the IC90 amounted to 8.91 µM. For the setting “PBLUC_HILL_SLOPE 4.8, PBLUC_R_SQUARED 0.508, read-out: LUCIFERASE INFECTION ASSAY - IC50”, the IC50 was 5.64 µM.

Consider `COc1ccc(COC(=O)Cc2c(C)[nH]c(-c3ccccn3)nc2=O)cc1OC`, for which the IC90 stood at 8.13 µM. Also, the IC50 (PBLUC_HILL_SLOPE 4.54, PBLUC_R_SQUARED 0.664, read-out: LUCIFERASE INFECTION ASSAY - IC50) turned out to be 5.01 µM.

Consider `CCC(Sc1ncnc2sc(C)c(C)c12)C(=O)Nc1cc(C)on1` (centres undefined), for which the IC90 is more than 10 µM. The IC50 (PBLUC_HILL_SLOPE 4.56, PBLUC_R_SQUARED 0.361, read-out: LUCIFERASE INFECTION ASSAY - IC50) came out at 9.74 µM.

For the compound `CNc1nc2cnc(Nc3cccc(C(C)C)c3)cc2n1CC1CC1`, the IC90 came to 9.92 µM. The IC50 (PBLUC_HILL_SLOPE 4.69, PBLUC_R_SQUARED 0.216, read-out: LUCIFERASE INFECTION ASSAY - IC50) was determined as 6.21 µM.

`Cc1nn(-c2cccc(C(F)(F)F)c2)c2c1C=Nc1cc(S(=O)(=O)N3CCOCC3)ccc1O2`: the IC90 is more than 10 µM. Further, the IC50 (PBLUC_HILL_SLOPE 4.52, PBLUC_R_SQUARED 0.617, read-out: LUCIFERASE INFECTION ASSAY - IC50) stood at 8.73 µM.

With `O=C1C(=C(O)c2ccc(OC(F)F)cc2)Sc2ccccc21`, the IC90 was more than 10 µM. Besides, where the note is “PBLUC_HILL_SLOPE 4.86, PBLUC_R_SQUARED 0.465, read-out: LUCIFERASE INFECTION ASSAY - IC50”, the IC50 was 9.12 µM.

Turning to `CN(C)C(=O)c1ccc(-c2cc3c(Nc4cccc(C(F)(F)F)c4)nccc3n2C)cc1`, the IC90 worked out at 6.54 µM. For the same compound, for the setting “PBLUC_HILL_SLOPE 4.75, PBLUC_R_SQUARED 0.5, read-out: LUCIFERASE INFECTION ASSAY - IC50”, the IC50 was 4.12 µM.

For `Cc1[nH]nc2ccnc(-c3cccc(Oc4ccccc4)c3)c12`, the IC90 was determined as 5.52 µM. In addition, the IC50 (PBLUC_HILL_SLOPE 4.64, PBLUC_R_SQUARED 0.273, read-out: LUCIFERASE INFECTION ASSAY - IC50) stood at 3.44 µM.

Regarding `CCCCNC(=O)c1c(NCCC)sc(C(=O)c2ccc(OC)cc2)c1N`, the IC90 was more than 10 µM. For the same compound, for the setting “PBLUC_HILL_SLOPE 4.7, PBLUC_R_SQUARED 0.148, read-out: LUCIFERASE INFECTION ASSAY - IC50”, the IC50 is 8.99 µM.

Consider `CC(C)(CNC(=O)Nc1ccccc1)SCc1ccc(Cl)cc1`, for which the IC90 was more than 9.46 µM. Moreover, under “PBLUC_HILL_SLOPE 4.79, PBLUC_R_SQUARED 0.408, read-out: LUCIFERASE INFECTION ASSAY - IC50”, the IC50 is 6.73 µM.

`CC(=O)NCCC(=O)N(c1ccc(Oc2ccccc2)cc1)c1nc2ccccc2s1`: the IC90 is more than 10 µM. Besides, for the setting “PBLUC_HILL_SLOPE 4.74, PBLUC_R_SQUARED 0.599, read-out: LUCIFERASE INFECTION ASSAY - IC50”, the IC50 amounted to 6.78 µM.

Regarding `Cc1ccc(Nc2nc(CSc3nc4ccccc4c(=O)n3CCCCCCC(C)C)cs2)cc1`, the IC90 is more than 10 µM. Where the note is “PBLUC_HILL_SLOPE 4.69, PBLUC_R_SQUARED 0.352, read-out: LUCIFERASE INFECTION ASSAY - IC50”, the IC50 came to 7.63 µM.

With `COc1ccc(OC)c(CN2CCN(c3nc(-c4cccnc4)nc4sc(C)c(C)c34)CC2)c1`, the IC90 is 6.84 µM. For the same compound, the IC50 (PBLUC_HILL_SLOPE 4.71, PBLUC_R_SQUARED 0.569, read-out: LUCIFERASE INFECTION ASSAY - IC50) stood at 4.29 µM.

With `O=C(CSCc1cn(-c2ccccc2)nc1-c1ccccc1)NC1CCCC1`, the IC90 was more than 10 µM. Besides, where the note is “PBLUC_HILL_SLOPE 4.68, PBLUC_R_SQUARED 0.205, read-out: LUCIFERASE INFECTION ASSAY - IC50”, the IC50 worked out at 6.9 µM.

As for `Cc1c(C(=O)OCc2coc(-c3cccs3)n2)sc2nc3n(c(=O)c12)CCC3`, the IC90 worked out at 7.63 µM. Besides, where the note is “PBLUC_HILL_SLOPE 4.64, PBLUC_R_SQUARED 0.43, read-out: LUCIFERASE INFECTION ASSAY - IC50”, the IC50 amounted to 4.75 µM.

For `O=C1C(=O)N(CCN2CCOCC2)c2ccc(F)cc21`, the IC90 is more than 11.9 µM. Besides, where the note is “PBLUC_HILL_SLOPE 4.75, PBLUC_R_SQUARED 0.191, read-out: LUCIFERASE INFECTION ASSAY - IC50”, the IC50 came out at 10.9 µM.

For the compound `CC/N=c1\scc(-c2cc(C)c(C)cc2C)n1/N=C/c1c[nH]c2ccccc12`, the IC90 worked out at 6.13 µM. Further, the IC50 (PBLUC_HILL_SLOPE 4.53, PBLUC_R_SQUARED 0.847, read-out: LUCIFERASE INFECTION ASSAY - IC50) turned out to be 3.77 µM.

In the case of `Cc1cc(-n2c(C)cc(C(=O)COc3ccccc3C#N)c2C)no1`, the IC90 is more than 10 µM. Where the note is “PBLUC_HILL_SLOPE 4.77, PBLUC_R_SQUARED 0.224, read-out: LUCIFERASE INFECTION ASSAY - IC50”, the IC50 is 7.56 µM.

On to `Nc1cccc(-c2cn3c(-c4ccc5c(c4)OCO5)cnc3cn2)c1`, for which the IC90 is 8.12 µM. Besides, under “PBLUC_HILL_SLOPE 4.69, PBLUC_R_SQUARED 0.303, read-out: LUCIFERASE INFECTION ASSAY - IC50”, the IC50 came out at 5.08 µM.

With `CCC(C)(C)C1CCc2c(sc(NC(=O)CN3CCOCC3)c2C#N)C1` (centres undefined), the IC90 was 8.57 µM. For the same compound, the IC50 (PBLUC_HILL_SLOPE 4.77, PBLUC_R_SQUARED 0.355, read-out: LUCIFERASE INFECTION ASSAY - IC50) worked out at 5.41 µM.

In the case of `Fc1ccc(Nc2ncnc3c2cnn3Cc2ccc(Cl)cc2)cc1`, the IC90 amounted to 9.37 µM. Also, where the note is “PBLUC_HILL_SLOPE 4.8, PBLUC_R_SQUARED 0.59, read-out: LUCIFERASE INFECTION ASSAY - IC50”, the IC50 was found to be 5.93 µM.

`CNC(=O)c1ccc(CN(CCOc2cccc(F)c2)C2CC2)cc1`: the IC90 is more than 10 µM. For the same compound, for the setting “PBLUC_HILL_SLOPE 4.75, PBLUC_R_SQUARED 0.3, read-out: LUCIFERASE INFECTION ASSAY - IC50”, the IC50 was found to be 6.72 µM.

Consider `CC(C)(C)c1ccc(C2SCC(=O)N2c2ccc(Cl)cc2)cc1` (centres undefined), for which the IC90 turned out to be 6.66 µM. Further, the IC50 (PBLUC_HILL_SLOPE 4.61, PBLUC_R_SQUARED 0.0595, read-out: LUCIFERASE INFECTION ASSAY - IC50) was determined as 4.13 µM.

Consider `O=C(NNC(=O)c1cc2c(s1)CCCCC2)c1ccccn1`, for which the IC90 came to 8.35 µM. Further, the IC50 (PBLUC_HILL_SLOPE 4.79, PBLUC_R_SQUARED 0.138, read-out: LUCIFERASE INFECTION ASSAY - IC50) turned out to be 5.28 µM.

For the compound `CC1CCc2sc(-c3nnc(SCC(=O)Nc4sccc4C(N)=O)o3)cc2C1` (centres undefined), the IC90 came to 9.89 µM. Besides, the IC50 (PBLUC_HILL_SLOPE 4.8, PBLUC_R_SQUARED 0.154, read-out: LUCIFERASE INFECTION ASSAY - IC50) came out at 6.26 µM.

Turning to `COCOc1ccc(-c2cc(-c3ccc(OC)c(OC)c3)cnc2N)cc1`, the IC90 was more than 9.01 µM. Also, under “PBLUC_HILL_SLOPE 4.72, PBLUC_R_SQUARED 0.371, read-out: LUCIFERASE INFECTION ASSAY - IC50”, the IC50 was found to be 7.27 µM.

On to `CCc1c(C)sc(NC(=O)c2c(-c3ccccc3)noc2C)c1C(=O)OC`, for which the IC90 is more than 8.58 µM. Where the note is “PBLUC_HILL_SLOPE 4.81, PBLUC_R_SQUARED 0.194, read-out: LUCIFERASE INFECTION ASSAY - IC50”, the IC50 was 5.61 µM.

For `CC(=O)Nc1cccc(-c2cn3c(-c4ccc(CO)cc4)cnc3cn2)c1`, the IC90 was more than 9.21 µM. Further, the IC50 (PBLUC_HILL_SLOPE 4.55, PBLUC_R_SQUARED 0.47, read-out: LUCIFERASE INFECTION ASSAY - IC50) was 6.15 µM.

As to `Cc1onc(-c2c(F)cccc2Cl)c1C(=O)ON=C1C2CC3CC(C2)CC1C3`, the IC90 turned out to be 4.84 µM. The concentration for half-maximal inhibition (IC50) (PBLUC_HILL_SLOPE 4.6, PBLUC_R_SQUARED 0.401, read-out: LUCIFERASE INFECTION ASSAY - IC50) is 3 µM.

Regarding `Cc1nc2ccccc2n1CCC(=O)Nc1cccc(Cl)c1`, the IC90 is 8.51 µM. Besides, the IC50 (PBLUC_HILL_SLOPE 4.62, PBLUC_R_SQUARED 0.253, read-out: LUCIFERASE INFECTION ASSAY - IC50) was found to be 5.29 µM.
